For orientation: IC50 means the concentration that inhibits the measured activity by half. A higher IC50 goes with weaker potency.

The structures appear in SMILES notation.

Galectin-3, sequence (P17931 whole entry): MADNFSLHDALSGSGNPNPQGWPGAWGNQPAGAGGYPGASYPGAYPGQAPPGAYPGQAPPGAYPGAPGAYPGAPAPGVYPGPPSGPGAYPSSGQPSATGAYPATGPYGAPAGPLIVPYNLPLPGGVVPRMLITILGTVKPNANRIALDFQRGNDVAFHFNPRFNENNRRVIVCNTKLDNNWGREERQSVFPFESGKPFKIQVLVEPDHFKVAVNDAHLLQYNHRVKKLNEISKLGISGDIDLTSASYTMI

The assay deals with Galectin-3 (Homo sapiens, UniProt P17931). The experiment in a line: Spectrophotometric Assay. How it is done:
The inhibitory activity of compounds is determined in competitive binding assays. […] Finally, 25 μL/well of ABTS substrate is added.
Regarding `CO[C@@H]1[C@@H](n2cc(-c3cc(F)c(F)c(F)c3)nn2)[C@@H](O)[C@@H](CO)O[C@H]1C(=O)N(c1cc(Cl)cc(Cl)c1)[C@H]1COC[C@@H]1O` [US20240124427, Example 4], the IC50 worked out at 72 nM.
Next, `CO[C@@H]1[C@@H](n2cc(-c3cc(F)c(F)c(F)c3)nn2)[C@@H](O)[C@@H](CO)O[C@H]1C(=O)N(c1cc(Br)cc(C#N)c1)[C@H]1COC[C@@H]1O` [US20240124427, Example 7]: 83 nM.
Then `CO[C@@H]1[C@@H](n2cc(-c3cc(F)c(Cl)c(F)c3)nn2)[C@@H](O)[C@@H](CO)O[C@H]1C(=O)N(c1cc(Br)cc(C#N)c1)[C@H]1COC[C@@H]1O` [US20240124427, Example 24], with 73 nM; and `CO[C@@H]1[C@@H](n2cc(-c3cc(F)c(F)c(F)c3)nn2)[C@@H](O)[C@@H](CO)O[C@H]1C(=O)N(c1cc(Br)cc(C#N)c1)[C@@H]1COC[C@H]1O` [US20240124427, Example 36], with 67 nM.
As to `CO[C@@H]1[C@@H](n2cc(-c3cc(F)c(Cl)c(F)c3)nn2)[C@@H](O)[C@@H](CO)O[C@H]1C(=O)N(c1cc(Br)cc(C#N)c1)[C@@H]1COC[C@H]1O` [US20240124427, Example 53], the IC50 is 46 nM.
The compound `CO[C@@H]1[C@@H](n2cc(-c3ccc(Br)c(F)c3F)nn2)[C@@H](O)[C@@H](CO)O[C@H]1C(=O)N(c1cc(Cl)cc(Cl)c1)[C@H]1CNC[C@@H]1O` [US20240124427, Example 62] yielded an IC50 of 12 nM.

Source of the values: BindingDB's records for patent US20240124427 (Idorsia Pharmaceuticals, 2024).
